In data set [1] the test system is Citrobacter freundii IFO 12681. Description: Antibacterial spectrum, MIC on agar (Table 3). The class given is cell-based. The conditions noted are these: Bacto-Antibiotic Medium 3 + yeast extract + agar, inoculum approx. 10^6 CFU/mℓ, dihydrochlorides. From the text:
(§1) Tables 3 and 4 show the antibacterial spectra of TAN-749A, B, C, and D (dihydrochlorides) against various microbes.

The test system of data set [2] is Escherichia coli NIHJ JC2. As to the kind of experiment: Antibacterial spectrum, MIC on agar (Table 3). The class given is cell-based. The conditions noted are these: NIHJJC2, Bacto-Antibiotic Medium 3 + yeast extract + agar, inoculum approx. 10^6 CFU/mℓ, dihydrochlorides, read-out: Minimal Inhibitory Concentration.
Excerpt: as §1

Data set [3] concerns Klebsiella pneumoniae IFO 3317. As to the kind of experiment: Antibacterial spectrum, MIC on agar (Table 3). It is filed as cell-based. The conditions noted are these: IFO3317, Bacto-Antibiotic Medium 3 + yeast extract + agar, inoculum approx. 10^6 CFU/mℓ, dihydrochlorides, read-out: Minimal Inhibitory Concentration.
Excerpt: as §1

The test system of data set [4] is Proteus morganii IFO 3168. Description: Antibacterial spectrum, MIC on agar (Table 3). The class given is cell-based. The conditions noted are these: Morganella morganii, IFO3168, Bacto-Antibiotic Medium 3 + yeast extract + agar, inoculum approx. 10^6 CFU/mℓ, dihydrochlorides, read-out: Minimal Inhibitory Concentration.
Excerpt: as §1

In data set [5] the test system is Proteus vulgaris IFO 3988. Description: Antibacterial spectrum, MIC on agar (Table 3). The class given is cell-based. The conditions noted are these: IFO3988, Bacto-Antibiotic Medium 3 + yeast extract + agar, inoculum approx. 10^6 CFU/mℓ, dihydrochlorides, read-out: Minimal Inhibitory Concentration.
Excerpt: as §1

For data set [6], the system named is Pseudomonas aeruginosa IFO 3080. Description: Antibacterial spectrum, MIC on agar (Table 3). It is filed as cell-based. The conditions noted are these: Bacto-Antibiotic Medium 3 + yeast extract + agar, inoculum approx. 10^6 CFU/mℓ, dihydrochlorides.
Excerpt: as §1

In data set [7] the test system is Staphylococcus aureus FDA 209P. Description: Antibacterial spectrum, MIC on agar (Table 3). It is filed as cell-based. The conditions noted are these: Bacto-Antibiotic Medium 3 + yeast extract + agar, inoculum approx. 10^6 CFU/mℓ, dihydrochlorides.
Excerpt: as §1

Data set [8] relates to Escherichia coli T7. Description: Antibacterial spectrum, MIC by agar dilution method (Table 4). It is filed as cell-based. The conditions noted are these: inoculum 10^8 CFU/mℓ, dihydrochlorides.
Excerpt: as §1

Data set [9] has as its system Pseudomonas aeruginosa P9. Described as above. The conditions noted are these: medium B-TSA (10% horse serum/TSA), inoculum 10^8 CFU/mℓ, dihydrochlorides, read-out: Minimal Inhibitory Concentration. It is filed as cell-based.
Excerpt: as §1

Data set [10] deals with Staphylococcus aureus 1840 S. As to the kind of experiment: MIC against clinically isolated Staphylococcus aureus strains (Table 5). It is filed as cell-based. The conditions noted are these: strain 1840 S, resistance type None, agar dilution method, Mueller Hinton medium, inoculum 10^6CFU/mℓ, read-out: Minimal Inhibitory Concentration. For orientation: Agar dilution tests growth on a series of plates holding different concentrations.

Data set [11] concerns Staphylococcus aureus 1840-2. The description is as above. It is filed as cell-based. The conditions noted are these: 18402, strain 1840-2, resistance type Penicillin G, agar dilution method, Mueller Hinton medium, inoculum 10^6CFU/mℓ, read-out: Minimal Inhibitory Concentration.
The test system of data set [12] is Staphylococcus aureus TN 2613. The description is as above. The class given is cell-based. The conditions noted are these: TN2613, strain TN 2613, resistance type Methicillin, agar dilution method, Mueller Hinton medium, inoculum 10^6CFU/mℓ, read-out: Minimal Inhibitory Concentration.
Data set [13] has as its system Staphylococcus aureus TN 2648. The data set is described as above. The class given is cell-based. The conditions noted are these: TN2648, strain TN 2648, resistance type Methicillin, agar dilution method, Mueller Hinton medium, inoculum 10^6CFU/mℓ, read-out: Minimal Inhibitory Concentration.
Data set [14] has as its system Staphylococcus aureus TN 2687. The description is as above. It is filed as cell-based. The conditions noted are these: TN2687, strain TN 2687, resistance type Macrolide, agar dilution method, Mueller Hinton medium, inoculum 10^6CFU/mℓ, read-out: Minimal Inhibitory Concentration.
Data set [15] deals with Staphylococcus aureus TN 2684. Described as above. The conditions noted are these: TN2684, strain TN 2684, resistance type Macrolide, agar dilution method, Mueller Hinton medium, inoculum 10^6CFU/mℓ, read-out: Minimal Inhibitory Concentration. The class given is cell-based.
Data set [16] relates to Staphylococcus aureus TN 2688. Described as above. It is filed as cell-based. The conditions noted are these: TN2688, strain TN 2688, resistance type Macrolide, agar dilution method, Mueller Hinton medium, inoculum 10^6CFU/mℓ, read-out: Minimal Inhibitory Concentration.
A further data set concerns Escherichia coli 0-111. Description: Therapeutic effects on infectious diseases in mice (Table 6). It is filed as in vivo. The conditions noted are these: mice infected with Escherichia coli 0-111, route Subcutaneous, dihydrochlorides.
The subject of data set [17] is Escherichia coli T7. The data set is described as above. The class given is in vivo. The conditions noted are these: sc; mice infected with Escherichia coli T7; route Subcutaneous; dihydrochlorides.
Data set [18] has as its system Pseudomonas aeruginosa P-9. The description is as above. It is filed as in vivo. The conditions noted are these: P9, sc; mice infected with Pseudomonas aeruginosa P-9; route Subcutaneous; dihydrochlorides.
Data set [19] has as its system Staphylococcus aureus 308A-1. The description is as above. The class given is in vivo. The conditions noted are these: 308A1, po, mice infected with Staphylococcus aureus 308A-1, dihydrochlorides.
Data set [20] can be described thus: Acute toxicities on mice (Table 7). The conditions noted are these: mouse, in vivo, dihydrochlorides.
Data set [21] relates to Acinetobacter calcoaceticus IFO 13006. As to the kind of experiment: Antibacterial spectrum, MIC on agar (Table 3). It is filed as cell-based. The conditions noted are these: Bacto-Antibiotic Medium 3 + yeast extract + agar, inoculum approx. 10^6 CFU/mℓ, dihydrochlorides, listed as C.
Excerpt: as §1

For data set [22], the system named is Staphylococcus aureus 308A-1. Description: Antibacterial spectrum, MIC by agar dilution method (Table 4). It is filed as cell-based. The conditions noted are these: medium TSA, inoculum 10^8 CFU/mℓ, dihydrochlorides, listed as C.
Excerpt: as §1

Data set [23] has as its system Staphylococcus aureus FDA209P. Described as above. The class given is cell-based. The conditions noted are these: medium B-TSA (10% horse serum/TSA), inoculum 10^8 CFU/mℓ, dihydrochlorides, listed as C.
Excerpt: as §1

In data set [24] the test system is Streptococcus pyogenes E-14. The description is as above. It is filed as cell-based. The conditions noted are these: medium B-TSA (10% horse serum/TSA), inoculum 10^8 CFU/mℓ, dihydrochlorides, listed as C.
Excerpt: as §1

This is an account of results in EP0229313A2, “Compound related to antibiotic TAN-749 and their production” (priority 1985, dated 1987).

Structures are written as SMILES. ≈ marks a conversion by molar mass, not a printed value. Like-named read-outs stand apart in the source and are kept apart here.

In general, ED50 refers to the midpoint of the dose-response relation. By LD50 is commonly meant the dose expected to kill half of the subjects tested. Read a high LD50 as lower toxicity.

On to `CC=CC=CC(=O)NCC(O)CC(N)CC(=O)NCCC(=N)N` (stereo not shown) [TAN-749A], for which the MIC in data set [1] (Citrobacter freundii, IFO12681, Citrobacter freundii IFO 12681, read-out: Minimal Inhibitory Concentration) is at least 100 µg/mL; in data set [2], over 100 µg/mL; in [3], over 100 µg/mL; in data set [4] it was over 100 µg/mL; in [5], 100 µg/mL; in data set [6] (Pseudomonas aeruginosa, IFO3080, Pseudomonas aeruginosa IFO 3080, read-out: Minimal Inhibitory Concentration), 25 µg/mL. Besides, the MIC in [7] (Staphylococcus aureus, FDA209P, read-out: Minimal Inhibitory Concentration) was determined as 50 µg/mL; in the data set on Escherichia coli T7 [8] (Escherichia coli, T7, Escherichia coli T7, medium TSA, read-out: Minimal Inhibitory Concentration), 50 µg/mL (≈ 154 µM); in data set [9], 100 µg/mL (≈ 307 µM); in data set [10], 12.5 µg/mL (≈ 38.4 µM); in data set [11], 12.5 µg/mL (≈ 38.4 µM); in data set [12], 6.25 µg/mL (≈ 19.2 µM). Moreover, the MIC in data set [13] turned out to be 3.13 µg/mL (≈ 9.62 µM); in data set [14], 6.25 µg/mL (≈ 19.2 µM); in data set [15], 6.25 µg/mL (≈ 19.2 µM); in data set [16], 6.25 µg/mL (≈ 19.2 µM). Moreover, the ED50 in the data set on Escherichia coli 0-111 (Escherichia coli, 0111, sc, read-out: ED50) came out at 67.2 mg/kg; in the data set with Escherichia coli T7 [17] it was 50.8 mg/kg; in [18] it was 31 mg/kg; in [19], 17.7 mg/kg. Besides, the LD50 in [20] (route Oral) is 2000 to 4000 mg/kg; in data set [20] (sc, route Subcutaneous), about 500 mg/kg.
As for `CC=CC=CC(=O)NCC(O)CC(N)CC(=O)NCCC(=N)N` (stereo not shown) [TAN-749C], the “Minimal Inhibitory Concentration” value in data set [21] was over 100 µg/mL; in data set [1] (Citrobacter freundii IFO 12681, listed as C), over 100 µg/mL; in data set [6] (Pseudomonas aeruginosa IFO 3080, listed as C) it was 50 µg/mL; in data set [7] (listed as C), over 100 µg/mL; in the data set with Escherichia coli T7 [8] (Escherichia coli T7, medium TSA, listed as C), over 100 µg/mL; in data set [22], over 100 µg/mL. Moreover, the figures for the “Minimal Inhibitory Concentration” value in data set [23] and in [24] were over 100 µg/mL and 100 µg/mL, respectively. Further, in the data set with Escherichia coli 0-111 (listed as C), the median effective dose (ED50) came to 50 mg/kg.
